Experimental data: paper PMC11672801, “Synthesis of Temporin-SHa Retro Analogs with Lysine Addition/Substitution and Antibiotic Conjugation to Enhance Antibacterial, Antifungal, and Anticancer Activities” (Antibiotics, 2024)
Values after ≈ are worked out from the molar mass of the structure shown. Like-named read-outs stand apart in the source and are kept apart here. Where a SMILES comes first, the peptide text is derived from it. [ ]: non-standard residue; d: D form. The star is where a group is joined. Levofloxacinoyl = C[C@H]1COc2c(N3CCN(C)CC3)c(F)cc3c(=O)c(C(=O)*)cn1c23

Tests used:
C. albicans (ATCC 36082) = experiment: microbe, parasite or virus in culture
Method: Candida albicans (ATCC 36082) was cultured on Sabourad Dextrose Agar (SDA). A single colony was inoculated in Sabouraud Dextrose Broth (SDB) medium and grown overnight at 37 °C while shaking. The next day, the susceptibility of C. albicans was tested using a broth microdilution assay. Peptide analogs were diluted in SDB media by two-fold dilution, resulting in 100 µL of medium containing increasing concentrations of analogs. The overnight culture (turbidity at OD600 = 1) was 1000× diluted in SDB. Then 100 µL of this suspension was added to each well, resulting in a final 200 µL suspension containing 2–4 × 10^5 CFU/mL. The plate was incubated at 37 °C for 24 h. The next day, MIC (Minimum Inhibitory Concentration) values were determined as the concentrations of peptides causing > 99% inhibition of yeast growth.

S. aureus (NCTC 13277) = settings: >99% inhibition of growth, MH broth, 20-22 h, 37 °C
E. coli (ATCC 25922) = experiment: Antibacterial broth microdilution MIC assay; format: cell-based, Escherichia coli; settings: >99% inhibition of growth, MH broth, 20-22 h, 37 °C
Method: (§1) The antibacterial activity of peptide analogs was tested against different bacterial strains, i.e., Salmonella enterica subsp. enterica serotype Typhimurium or Salmonella typhi (ATCC 14028), Staphylococcus aureus (NCTC 13277), Bacillus subtilis (ATCC 23857), Escherichia coli (ATCC 25922), and Pseudomonas aeruginosa (ATCC 10145). These strains were obtained from the microbial bank of Dr. Panjwani Center for Molecular Medicine and Drug research (PCMD), International Center for Chemical and Biological Sciences (ICCBS), University of Karachi. Colonies of these bacterial strains were grown in respective agar media, then inoculated in Mueller Hinton (MH) broth (Oxoid, UK) and incubated at 37 °C overnight. The peptide solutions were first diluted 1 in 100 (from the stock solution at 20 mM) and then further two-fold dilution in MH broth in a sterile 96-well plate was performed, resulting in 100 µL of broth containing increasing concentrations of analogs. Bacteria in their exponential growth phase were diluted in MH broth, and 100 µL of this suspension was added in each well. […] Then, these plates were incubated at 37 °C for 20–22 h. MIC (Minimum Inhibitory Concentration) values were determined as the concentrations of peptides causing >99% inhibition of bacterial growth.

[1] = system: human red blood cells (RBC); experiment: Hemolytic assay; format: cell-based
Method: For the hemolytic assay, fresh human blood (2 mL) was obtained from a healthy donor in EDTA tube while following the protocol of approval from the Independent Ethics Committee of ICCBS (approval number ICCBS/IEC-047-HB-2019/Protocol/1.0). The blood was centrifuged and upper supernatant plasma was removed. The cell pellets were washed with sterile PBS three times. The washed blood cells were then diluted 25 times to make 4% concentration of the initial blood cells. Red blood cells (500 µL) were treated with increasing concentrations of analogs, with triton X-100 at 0.1% being used as positive control giving 100% hemolysis. After 1 h of incubation at 37 °C, tubes were centrifuged at 800 rpm for 5 min to pellet down red blood cells. After centrifugation, 200 µL of supernatant were transferred into a 96 well plate and the absorbance was recorded at 576 nm using a microplate reader (MultiSkan Go, ThermoScientific). Then, the following formula was applied to calculate percent hemolysis: % Hemolysis=O.D of test sample−O.D of PBS control/O.D of Tritox×positive control−O.D of PBS control×100

[2] = system: cancer cells (MCF-7, HeLa); parameters: species or system human
Method: The selectivity of action of the analogs against micro-organisms or cancer cells was further evaluated through calculation of their selectivity indexes (SIs). SIs were determined using either the MIC on micro-organisms or IC50 on cancer cells compared to HC50 values, and they are reported in Table 6.

[3] = system: human cervical cancer (HeLa) cells; experiment: cells; format: cell-based
Method: (§2) Human breast cancer (MCF-7) and human cervical cancer (HeLa) cells were obtained from the cell culture bank of PCMD in ICCBS, University of Karachi. These cells were maintained in Dulbecco’s Modified Eagle Medium (DMEM), supplemented with 10% fetal bovine serum, and incubated at 37 °C and 5% CO2. The antiproliferative activity of the samples was determined by a MTT assay. Briefly, the cells were washed with PBS and trypsinized. After determination of the cell number using Malassez cell counting, 100 µL of the cell suspension were seeded in a 96-well plate at the density of 6000 cells/well and incubated at 37 °C and 5% CO2. After 24 h, the cells were treated with increasing concentrations of analogs. The next day, media was removed and 200 µL of MTT dye (0.5 mg/mL) was added in each well and incubated for 3 h at 37 °C in 5% CO2 incubator. Then, the media was removed and 100 µL of DMSO was added to solubilize formazan crystals. After one minute of shaking, the absorbance was recorded at 540 nm in microplate reader (Multiskan GO, ThermoScientific, Waltham, MA, USA). Finally, the percent inhibition of proliferation was calculated using the following formula: % inhibition of proliferation=O.D of treated well−O.D of media control/O.D of untreated control−O.D of media control×100

[4] = system: Human breast cancer (MCF-7) cells; experiment: cells; format: cell-based
Method: as §2

[5] = system: P. aeruginosa (ATCC 10145); experiment: Antibacterial broth microdilution MIC assay; format: cell-based, Pseudomonas aeruginosa; settings: >99% inhibition of growth, MH broth, 20-22 h, 37 °C
Method: as §1

B. subtilis (ATCC 23857) = experiment: Antibacterial broth microdilution MIC assay; format: cell-based, Bacillus subtilis; settings: >99% inhibition of growth, MH broth, 20-22 h, 37 °C
Method: as §1

[6] = system: human red blood cells (RBC); settings: previously reported; cited from earlier work
[7] = Circular dichroism secondary structure analysis (Bestsel) in 20 mM SDS; format: physicochemical; settings: CD, 15 µM peptide in 20 mM SDS, 22 °C
Method: The far-ultraviolet circular dichroism (CD) spectra were recorded using a JASCO J-810 spectropolarimeter (Jasco, Tokyo, Japan), with measurements taken in a quartz cuvette with a 10 mm path length. The temperature was kept at 22 °C, and the instrument was calibrated with D-(+)-10-camphorsulfonic acid. Peptides were dissolved in 20 mM SDS to a final concentration of 15 µM. The CD spectra were collected over a wavelength range of 190 to 260 nm with a bandwidth of 2 nm. Each spectrum was recorded with ten consecutive scans at a rate of 50 nm/min, and the baseline was obtained under identical conditions. Secondary structures, i.e., the percentage of alpha-helix and other secondary structures, were quantified from CD data using Bestsel software (https://bestsel.elte.hu/index.php, accessed on 22 October 2024).

E. coli = experiment: Atomic force microscopy imaging of treated bacteria; format: cell-based, Escherichia coli; settings: 2XMIC, overnight, tapping mode
Method: (§3) Different bacteria (S. typhi, E. coli, and P. aeruginosa) adjusted to 2–3 × 10^7 CFU/mL were treated with 2XMIC values of analogs and incubated overnight at 37 °C. The next day, the bacteria were washed, dispersed in sterile pure grade water, dispensed in poly-L-lysine-coated mica slides, and left for air drying. Changes in the morphology of the bacteria were studied with an atomic force microscope (Agilent 5500, Chandler, AZ, USA). The whole analysis was carried out in tapping mode. Images were collected and optimized at a scan velocity of 1–5 µm/s and 512 × 512-line resolution and processed through PicoView 1.2 imaging software.

P. aeruginosa = experiment: as above; format: cell-based, Pseudomonas aeruginosa; settings: 2XMIC, overnight, tapping mode
Method: as §3

[8] = MTT, 24 h exposure, read-out: IC50 on Cervical Cancer (HeLa)

| Structure (SMILES) | MIC C. albicans (ATCC 36082) (C. albicans (ATCC 36082); ATCC 36082, 24 h) [µM] | MIC S. aureus (NCTC 13277) (S. aureus (NCTC 13277)) [µM] | MIC S. typhi (ATCC 14028) (S. typhi (ATCC 14028); ATCC 14028) [µM] | MIC (E. coli (ATCC 25922)) [µM] | HC50 on Human Red Blood Cells (RBCs) ([1]; red cells of human, 1 h) [µM] | IC50 [2] [µM] | IC50 ([3]; 24 h) [µM] | IC50 ([4]; 24 h) [µM] | MIC [5] [µM] | MIC (B. subtilis (ATCC 23857)) [µM] | IC50 [3, 8] [µM] | also measured |
| --- | --- | --- | --- | --- | --- | --- | --- | --- | --- | --- | --- | --- |
| CC[C@H](C)[C@H](NC(=O)[C@@H](NC(=O)CNC(=O)[C@H](CCSC)NC(=O)[C@H](CC(C)C)NC(=O)CNC(=O)[C@H](CCCCN)NC(=O)[C@H](CC(C)C)NC(=O)[C@@H](N)Cc1ccccc1)C(C)C)C(=O)N[C@H](C)C(=O)N[C@@H](CO)C(=O)N[C@@H](CC(C)C)C(=O)N[C@@H](Cc1ccccc1)C(=O)N[C@@H](CCCCNC(=O)c1cn2c3c(c(N4CCN(C)CC4)c(F)cc3c1=O)OC[C@@H]2C)C(N)=O [RLFP-1 (4), H-Phe^1-Leu^2-Lys^3-Gly^4-Leu^5-Met^6-Gly^7-Val^8-Ile^9-D-Ala^10-Ser^11-Leu^12-Phe^13-Lys^14(LF)-NH2] (H-FLKGLMGVI[dA]SLFK(Levofloxacinoyl)-NH2) | >250 | 50 (≈ 93.3 µg/mL) | 25 (≈ 46.7 µg/mL) | >200 | 98.9 | > 100 | > 100 | > 100 | >200 | 50 (≈ 93.3 µg/mL) | – | HC50 on Human Red Blood Cells (RBCs) [1]: 98.6 µM |
| CC[C@H](C)[C@H](NC(=O)[C@@H](NC(=O)CNC(=O)[C@H](CCSC)NC(=O)[C@H](CC(C)C)NC(=O)CNC(=O)[C@H](CCCCNC(=O)c1cn2c3c(c(N4CCN(C)CC4)c(F)cc3c1=O)OC[C@@H]2C)NC(=O)[C@H](CC(C)C)NC(=O)[C@@H](N)Cc1ccccc1)C(C)C)C(=O)N[C@H](C)C(=O)N[C@@H](CO)C(=O)N[C@@H](CC(C)C)C(=O)N[C@@H](Cc1ccccc1)C(=O)N[C@@H](CCCCN)C(N)=O [RLFP-2 (5), H-Phe^1-Leu^2-Lys^3(LF)-Gly^4-Leu^5-Met^6-Gly^7-Val^8-Ile^9-D-Ala^10-Ser^11-Leu^12-Phe^13-Lys^14-NH2] (H-FLK(Levofloxacinoyl)GLMGVI[dA]SLFK-NH2) | >250 | 100 (≈ 187 µg/mL) | 200 (≈ 373 µg/mL) | >200 | 25.0 | > 100 | > 100 | > 100 | >200 | 50 (≈ 93.3 µg/mL) | – | – |
| CC[C@H](C)[C@H](NC(=O)[C@@H](C)NC(=O)[C@H](CO)NC(=O)[C@H](CC(C)C)NC(=O)[C@@H](N)Cc1ccccc1)C(=O)N[C@H](C(=O)NCC(=O)N[C@@H](CCSC)C(=O)N[C@@H](CC(C)C)C(=O)NCC(=O)N[C@@H](CCCCN)C(=O)N[C@@H](CC(C)C)C(=O)N[C@@H](Cc1ccccc1)C(N)=O)C(C)C [NST-2 (1), H-Phe^1-Leu^2-Ser^3-D-Ala^4-Ile^5-Val^6-Gly^7-Met^8-Leu^9-Gly^10-Lys^11-Leu^12-Phe^13-NH2] (H-FLS[dA]IVGMLGKLF-NH2) | – | 14.34 (≈ 20 µg/mL) | 250 (≈ 349 µg/mL) | 125 (≈ 174 µg/mL) | – | – | – | – | >250 | 6.25 (≈ 8.72 µg/mL) | > 100 | MIC C. albicans (ATCC 36082) (C. albicans (ATCC 36082); >99% inhibition of yeast growth, SDB, 24 h, 37 °C): 20 µM (≈ 27.9 µg/mL); HC50 on Human Red Blood Cells (RBCs) ([1]; 1 h, 37 °C, 0.1% triton X-100 = 100% hemolysis): 90.0 µM; hemolysis HC50 [6]: 90.0 µM; IC50 ([4]; lowest IC50 on cancer cells = MCF-7 (peptides 1, 2, 7), from Table 5, read-out: Lower IC50): 17.9 µM |
| CC[C@H](C)[C@H](NC(=O)[C@@H](NC(=O)CNC(=O)[C@H](CCSC)NC(=O)[C@H](CC(C)C)NC(=O)CNC(=O)[C@H](CCCCN)NC(=O)[C@H](CC(C)C)NC(=O)[C@@H](N)Cc1ccccc1)C(C)C)C(=O)N[C@H](C)C(=O)N[C@@H](CO)C(=O)N[C@@H](CC(C)C)C(=O)N[C@@H](Cc1ccccc1)C(=O)N[C@@H](CCCCN)C(N)=O [RSP-1 (3), H-Phe^1-Leu^2-Lys^3-Gly^4-Leu^5-Met^6-Gly^7-Val^8-Ile^9-D-Ala^10-Ser^11-Leu^12-Phe^13-Lys^14-NH2] (H-FLKGLMGVI[dA]SLFK-NH2) | 15.6 (≈ 23.8 µg/mL) | 6.25 (≈ 9.52 µg/mL) | – | 25 (≈ 38.1 µg/mL) | 51.0 | – | – | 42.7 | 50 (≈ 76.1 µg/mL) | 1.56 (≈ 2.38 µg/mL) | 33.5 | MIC S. typhi (ATCC 14028) (S. typhi (ATCC 14028); >99% inhibition of growth, MH broth, 20-22 h, 37 °C): 50 µM (≈ 76.1 µg/mL); Antiparallel (%) [7]: 18.2%; Helix (%) [7]: 81.8%; Others (%) [7]: 0.00%; Parallel (%) [7]: 0.00%; Turn (%) [7]: 0.00%; AFM morphology of E. coli after treatment (E. coli): significant damages to the bacteria; AFM morphology of P. aeruginosa after treatment (P. aeruginosa): significant damages to the bacteria |
